# Measured values published in US20100305120A1, “COMPOUNDS FOR TREATING MUSCULAR DYSTROPHY” (BIOMARIN IGA LIMITED, priority 2008, published 2010).
# System: Utrophin A promoter linked to a luciferase reporter gene
# Assay: Luciferase reporter assay (murine H2K cells), H2K/mdx/Utro A reporter cell line
# Format: cell-based
# Conditions: 48 h; test compound concentration 0.3 μM; mdx mouse H2K Utrophin A reporter cells; read-out: Activity (luciferase level relative to control)
# Description: Luciferase Reporter Assay (Murine H2K Cells)
# The cell line used for the screen is an immortalized mdx mouse H2K cell line that has been stably transfected with a plasmid containing ≈5 kb fragment of the Utrophin A promoter including the first untranslated exon linked to a luciferase reporter gene.
# Under conditions of low temperature and interferon containing media, the cells remain as myoblasts. These are plated into 96 well plates and cultured in the presence of compound for three days. The level of luciferase is then determined by cell lysis and reading of the light output from the expressed luciferase gene utilising a plate luminometer.
# Luciferase Assay for 96 Well Plates
# The H2K/mdx/Utro A reporter cell line cells were plated out into 96 well plates (Falcon 353296, white opaque) at a density of approximately 5000 cells/well in 190 μl normal growth medium. The plates were then incubated at 33° C. in the presence of 10% CO2 for 24 hrs.
# Compounds were dosed by adding 10 μl of diluted compound to each well giving a final concentration of 10 μM (where a different final concentration was required, the amount of compound solution added was amended accordingly). The plates were then incubated for a further 48 hrs. Cells were then lysed in situ following the manufacture's protocols (Promega Steady-Glo Luciferase Assay System(E2520). Then counted for 10 seconds using a plate luminometer (Victor1420).
# Compounds for screening were stored at −20° C. as 10 mM stocks in 100% DMSO until required.
# Biological activity as assessed using the luciferase reporter assay in murine H2K cells, and the results are shown in Table 1, which also lists the concentration of the test compound solution in μM.
row,SMILES,activity at 0.3 µM [%]
1,"CS(=O)(=O)c1ccc(Cn2nc(CNc3ccc4c(c3)OCO4)c3ccccc32)cc1 [Compound 90, N-((1-(4-(methylsulfonyl)benzyl)-1H-indazol-3-yl)methyl)benzo[d][1,3]dioxol-5-amine]",< 200
2,"O=C(Nc1ccc2c(c1)OCO2)c1nn(Cc2ccc3ccccc3c2)c2ccccc12 [Compound 141, N-(benzo[d][1,3]dioxol-5-yl)-1-(naphthalen-2-ylmethyl)-1H-indazole-3-carboxamide]",< 200

# Same assay, conditions: 48 h; test compound concentration 3 μM; mdx mouse H2K Utrophin A reporter cells; read-out: Activity (luciferase level relative to control)
row,SMILES,activity at 3 µM [%]
1,"CS(=O)(=O)c1ccc(Cn2nc(C(=O)Nc3cnc4ccccc4c3)c3ccccc32)cc1 [Compound 103, 1-(4-(methylsulfonyl)benzyl)-N-(quinolin-3-yl)-1H-indazole-3-carboxamide]",< 200

# Same assay, conditions: 48 h; test compound concentration 10 μM; mdx mouse H2K Utrophin A reporter cells; read-out: Activity (luciferase level relative to control)
row,SMILES,activity at 10 µM [%]
1,"Cc1ccc(Cn2nc(C(=O)Nc3ccc4c(c3)OCO4)c3ccccc32)cc1 [Compound 131, N-(benzo[d][1,3]dioxol-5-yl)-1-(4-methylbenzyl)-1H-indazole-3-carboxamide]",< 200
2,"CS(=O)(=O)c1ccc(C(=O)n2nc(C(=O)Nc3ccc4c(c3)OCO4)c3ccccc32)cc1 [Compound 140, N-(benzo[d][1,3]dioxol-5-yl)-1-(4-(methylsulfonyl)benzoyl)-1H-indazole-3-carboxamide]",301 to 400
3,"Cc1ccc(NC(=O)c2nn(Cc3ccc(S(C)(=O)=O)cc3)c3ccccc23)cc1 [Compound 108, 1-(4-(methylsulfonyl)benzyl)-N-p-tolyl-1H-indazole-3-carboxamide]",> 401
4,"O=C(Nc1ccc2c(c1)OC(F)(F)C(F)(F)O2)c1nn(Cc2ccc(C(=O)N3CCOCC3)cc2)c2ccccc12 [Compound 161, 1-(4-(morpholine-4-carbonyl)benzyl)-N-(2,2,3,3-tetrafluoro-2,3-dihydrobenzo[b][1,4]dioxin-6-yl)-1H-indazole-3-carboxamide]",201 to 300
5,"Cc1ccc(NC(=O)c2nn(Cc3ccc(C(=O)N(C)C)cc3)c3ccccc23)cc1 [Compound 138, 1-(4-(dimethylcarbamoyl)benzyl)-N-p-tolyl-1H-indazole-3-carboxamide]",201 to 300
6,"CN(C)S(=O)(=O)c1ccc(Cn2nc(C(=O)Nc3ccc4c(c3)OCO4)c3ccccc32)cc1 [Compound 128, N-(benzo[d][1,3]dioxol-5-yl)-1-(4-(N,N-dimethylsulfamoyl)benzyl)-1H-indazole-3-carboxamide]",201 to 300
7,"CCn1ccc(C(=O)Nc2ccc(Cl)cc2Cl)n1 [Compound 147, N-(2,4-dichlorophenyl)-1-ethyl-1H-pyrazole-3-carboxamide]",< 200
8,"Cc1ccc(NC(=O)c2nn(Cc3ccc(S(C)(=O)=O)cc3)c3ccccc23)nc1 [Compound 134, N-(5-methylpyridin-2-yl)-1-(4-(methylsulfonyl)benzyl)-1H-indazole-3-carboxamide]",< 200
9,"O=C(Nc1ccccn1)c1nn(CCOc2ccc(F)cc2)c2ccccc12 [Compound 67, 1-(2-(4-fluorophenoxy)ethyl)-N-(pyridin-2-yl)-1H-indazole-3-carboxamide]",< 200
10,"CS(=O)(=O)c1ccc(Cn2nc(C(=O)Nc3ccc(C4CCCCC4)cc3)c3ccccc32)cc1 [Compound 122, N-(4-cyclohexylphenyl)-1-(4-(methylsulfonyl)benzyl)-1H-indazole-3-carboxamide]",201 to 300
11,"CS(=O)(=O)c1ccc(Cn2nc(C(=O)Nc3ccc4ncccc4c3)c3ccccc32)cc1 [Compound 99, 1-(4-(methylsulfonyl)benzyl)-N-(quinolin-6-yl)-1H-indazole-3-carboxamide]",201 to 300
12,"O=C(Nc1ccc2c(c1)OCO2)c1nn(Cc2ccccc2)c2ccccc12 [Compound 87, N-(benzo[d][1,3]dioxol-5-yl)-1-benzyl-1H-indazole-3-carboxamide]",< 200
13,"O=C(NCc1ccco1)Nc1nn(Cc2cc3c(cc2Cl)OCO3)c2ccccc12 [Compound 55, 1-(1-((6-chlorobenzo[d][1,3]dioxol-5-yl)methyl)-1H-indazol-3-yl)-3-(furan-2-ylmethyl)urea]",< 200
14,"O=C(Nc1nc2ccccc2s1)c1nn(Cc2ccc(C(=O)N3CCOCC3)cc2)c2ccccc12 [Compound 17, N-(benzo[d]thiazol-2-yl)-1-(4-(morpholine-4-carbonyl)benzyl)-1H-indazole-3-carboxamide]",201 to 300
15,"CS(=O)(=O)c1ccc(Cn2cc(C(=O)Nc3ccc4c(c3)OCO4)c3ccccc32)cc1 [Compound 146, N-(benzo[d][1,3]dioxol-5-yl)-1-(4-(methylsulfonyl)benzyl)-1H-indole-3-carboxamide]",< 200
16,"CN(c1ccccc1)S(=O)(=O)c1ccc(Cn2nc(C(=O)NOCc3ccccc3)c3ccccc32)cc1 [Compound 24, N-(benzyloxy)-1-(4-(N-methyl-N-phenylsulfamoyl)benzyl)-1H-indazole-3-carboxamide]",< 200
17,"O=C(Nc1ccc2c(c1)OCO2)c1nn(Cc2cccnc2)c2ccccc12 [Compound 106, N-(benzo[d][1,3]dioxol-5-yl)-1-(pyridin-3-ylmethyl)-1H-indazole-3-carboxamide]",201 to 300

row,SMILES,activity at 10 µM [%]
1,"CS(=O)(=O)c1ccc(Cn2nc(C(=O)Nc3ccc(Cl)c(Cl)c3)c3ccccc32)cc1 [Compound 111, N-(3,4-dichlorophenyl)-1-(4-(methylsulfonyl)benzyl)-1H-indazole-3-carboxamide]",< 200
2,"O=C(Nc1ccc2c(c1)OCO2)c1nn(CCOc2ccccc2)c2ccccc12 [Compound 58, N-(benzo[d][1,3]dioxol-5-yl)-1-(2-phenoxyethyl)-1H-indazole-3-carboxamide]",201 to 300
3,"CC(C)c1ccc(NC(=O)c2nn(CCOc3ccccc3)c3ccccc23)cc1 [Compound 26, N-(4-isopropylphenyl)-1-(2-phenoxyethyl)-1H-indazole-3-carboxamide]",< 200
4,"CC(=O)Nc1ccc(NC(=O)c2nn(Cc3ccc(S(C)(=O)=O)cc3)c3ccccc23)cc1 [Compound 107, N-(4-acetamidophenyl)-1-(4-(methylsulfonyl)benzyl)-1H-indazole-3-carboxamide]",201 to 300
5,"COc1ccc(NC(=O)c2nn(Cc3ccc(-c4ccccc4)cc3)c3ccccc23)cc1 [Compound 74, 1-(biphenyl-4-ylmethyl)-N-(4-methoxyphenyl)-1H-indazole-3-carboxamide]",< 200
6,"CC(C)c1ccc(Cn2nc(C(=O)Nc3ccc(S(C)(=O)=O)cc3)c3ccccc32)cc1 [Compound 91, 1-(4-isopropylbenzyl)-N-(4-(methylsulfonyl)phenyl)-1H-indazole-3-carboxamide]",< 200
7,"COc1ccc(NC(=O)c2nn(CCOc3ccccc3)c3ccccc23)cc1 [Compound 56, N-(4-methoxyphenyl)-1-(2-phenoxyethyl)-1H-indazole-3-carboxamide]",< 200
8,"CS(=O)(=O)c1ccc(Cn2nc(C(=O)Nc3ccc4ccccc4c3)c3ccccc32)cc1 [Compound 116, 1-(4-(methylsulfonyl)benzyl)-N-(naphthalen-2-yl)-1H-indazole-3-carboxamide]",201 to 300
9,"CC(C)c1cccc(NC(=O)c2nn(Cc3ccc(S(C)(=O)=O)cc3)c3ccccc23)c1 [Compound 96, N-(3-isopropylphenyl)-1-(4-(methylsulfonyl)benzyl)-1H-indazole-3-carboxamide]",< 200
10,"CCCc1ccc(NC(=O)c2nn(Cc3ccc(S(C)(=O)=O)cc3)c3ccccc23)cc1 [Compound 112, 1-(4-(methylsulfonyl)benzyl)-N-(4-propylphenyl)-1H-indazole-3-carboxamide]",201 to 300
11,"CC(C)c1ccc(NC(=O)c2nn(Cc3ccc(S(C)(=O)=O)cc3)c3ccccc23)cc1 [Compound 62, N-(4-isopropylphenyl)-1-(4-(methylsulfonyl)benzyl)-1H-indazole-3-carboxamide]",301 to 400
12,"CS(=O)(=O)c1ccc(Cn2nc(C(=O)Nc3nccs3)c3ccccc32)cc1 [Compound 3, 1-(4-(methylsulfonyl)benzyl)-N-(thiazol-2-yl)-1H-indazole-3-carboxamide]",< 200
13,"COc1ccc(NC(=O)c2nn(Cc3ccc(C(C)(C)C)cc3)c3ccccc23)cc1 [Compound 65, 1-(4-tert-butylbenzyl)-N-(4-methoxyphenyl)-1H-indazole-3-carboxamide]",201 to 300
14,"CC(C)c1ccc(NC(=O)c2nn(Cc3ccc(-c4ccccc4)cc3)c3ccccc23)cc1 [Compound 27, 1-(biphenyl-4-ylmethyl)-N-(4-isopropylphenyl)-1H-indazole-3-carboxamide]",< 200
15,"CCc1ccc(NC(=O)c2nn(Cc3ccc(S(C)(=O)=O)cc3)c3ccccc23)cc1 [Compound 84, N-(4-ethylphenyl)-1-(4-(methylsulfonyl)benzyl)-1H-indazole-3-carboxamide]",301 to 400
16,"CS(=O)(=O)c1ccc(Cn2nc(C(=O)Nc3ccc(S(C)(=O)=O)cc3)c3ccccc32)cc1 [Compound 101, 1-(4-(methylsulfonyl)benzyl)-N-(4-(methylsulfonyl)phenyl)-1H-indazole-3-carboxamide]",< 200
